Patent US10959968B2, “Methods for treating c-Met-dependent cancers” (Board of Supervisors of Louisiana State University and …, priority 2016, dated 2021)
Entries after “also recorded” stand apart in the source; their conditions may differ.

How the values were obtained:
[1] = system: MDA-MB-231 breast cancer cells; assay: LDH cytotoxicity assay; assay type: cell-based, human; conditions: MDA-MB-231 cells; 50 μM and 100 μM
Method: FIG. 3. (A) Effect of HVS treatment on HGF-stimulated growth of Met-dependent MDA-MB-231, MDA-MB-468, MCF-7. and BT-474 breast cancer cells after 72 h treatment period, compared to DMSO as vehicle control. Viable cell count was determined using MTT assay. Vertical bars indicate the mean cell count±SEM of N=3 in each treatment group; (−)-oleocanthal was used as a positive control at 20 μM. (B) Effect of HVS treatment on HGF-stimulated growth of Met-independent T-47D breast cancer cells after 72 h treatment period. Viable cell count was determined using MTT assay. Vertical bars indicate the mean cell count±SEM of N=3 in each treatment group. […] Triton X-100 was used as a positive control to cause the breakdown of all the cells and induce the total possible LDH release. (D) Effects of HVS treatment on the viability of non-tumorigenic human MCF10A mammary epithelial cells after a 24 h treatment period, compared to DMSO as vehicle control. (E) As in panel (A) but without HGF. […] Viable cell count was determined using MTT assay. Vertical bars indicate the mean cell count±SEM of N=3 in each treatment group; doxorubicin was used as a positive control at 10 μM dose. *P<0.05 as compared with vehicle treated control.
[…]. Selection of the aforementioned breast cancer cells was based on their phenotypes. […]

FLT1 (VEGFR1) = FLT1 (VEGFR1) (Homo sapiens, UniProt P17948); assay: SelectScreen Kinase Profiling; assay type: biochemical; conditions: read-out: Mean inhibition at 10 μM of HVS (%)
Method: (§1) HVS was evaluated against a cross-section of tyrosine kinases (TKs), which are known to be structurally related and oncogenically relevant to c-Met, in order to understand its selectivity profile. A panel of 15 TKs was selected for biochemical analysis through the SelectScreen Kinase Profiling Service (Invitrogen, CA). In this assay, the results are expressed as % inhibition at a 10 μM dose (see Table I below).
as §1, with “Table I (Above) HVS” for “HVS”, “profile (Table 1).” for “profile.”, “(Table 1).” for “(see Table I below).”

HER2 (ERbB2) = HER2 (ERbB2) (Homo sapiens, UniProt P04626); assay: SelectScreen Kinase Profiling; assay type: biochemical; conditions: read-out: Mean inhibition at 10 μM of HVS (%)
Method: as §1
as §1, with “Table I (Above) HVS” for “HVS”, “profile (Table 1).” for “profile.”, “(Table 1).” for “(see Table I below).”

IGF1R = IGF1R (Homo sapiens, UniProt P08069); assay: SelectScreen Kinase Profiling; assay type: biochemical
Method: as §1
as §1, with “Table I (Above) HVS” for “HVS”, “profile (Table 1).” for “profile.”, “(Table 1).” for “(see Table I below).”

KDR (VEGFR2) = KDR (VEGFR2) (Homo sapiens, UniProt P35968); assay: SelectScreen Kinase Profiling; assay type: biochemical; conditions: read-out: Mean inhibition at 10 μM of HVS (%)
Method: as §1
as §1, with “Table I (Above) HVS” for “HVS”, “profile (Table 1).” for “profile.”, “(Table 1).” for “(see Table I below).”

PDGFRβ = PDGFRβ (Homo sapiens, UniProt P09619); assay: SelectScreen Kinase Profiling; assay type: biochemical; conditions: read-out: Mean inhibition at 10 μM of HVS (%)
Method: as §1
as §1, with “Table I (Above) HVS” for “HVS”, “profile (Table 1).” for “profile.”, “(Table 1).” for “(see Table I below).”

FGFR1 = FGFR1 (Homo sapiens, UniProt P11362); assay: SelectScreen Kinase Profiling; assay type: biochemical; conditions: read-out: Mean inhibition at 10 μM of HVS (%)
Method: as §1
as §1, with “Table I (Above) HVS” for “HVS”, “profile (Table 1).” for “profile.”, “(Table 1).” for “(see Table I below).”

HER4 (ERbB4) = HER4 (ERbB4) (Homo sapiens, UniProt Q15303); assay: SelectScreen Kinase Profiling; assay type: biochemical; conditions: read-out: Mean inhibition at 10 μM of HVS (%)
Method: as §1
as §1, with “Table I (Above) HVS” for “HVS”, “profile (Table 1).” for “profile.”, “(Table 1).” for “(see Table I below).”

KIT = KIT (Homo sapiens, UniProt P10721); assay: SelectScreen Kinase Profiling; assay type: biochemical; conditions: read-out: Mean inhibition at 10 μM of HVS (%)
Method: as §1
as §1, with “Table I (Above) HVS” for “HVS”, “profile (Table 1).” for “profile.”, “(Table 1).” for “(see Table I below).”

EGFR (ERbB1) = EGFR (ERbB1) (Homo sapiens, UniProt P00533); assay: SelectScreen Kinase Profiling; assay type: biochemical; conditions: read-out: Mean inhibition at 10 μM of HVS (%)
Method: as §1
as §1, with “Table I (Above) HVS” for “HVS”, “profile (Table 1).” for “profile.”, “(Table 1).” for “(see Table I below).”

ROS1 = ROS1 (Homo sapiens, UniProt P08922); assay: SelectScreen Kinase Profiling; assay type: biochemical; conditions: read-out: Mean inhibition at 10 μM of HVS (%)
Method: as §1
as §1, with “Table I (Above) HVS” for “HVS”, “profile (Table 1).” for “profile.”, “(Table 1).” for “(see Table I below).”

ALK = ALK (Homo sapiens, UniProt Q9UM73); assay: SelectScreen Kinase Profiling; assay type: biochemical; conditions: read-out: Mean inhibition at 10 μM of HVS (%)
Method: as §1
as §1, with “Table I (Above) HVS” for “HVS”, “profile (Table 1).” for “profile.”, “(Table 1).” for “(see Table I below).”

[2] = system: MDA-MB-231 human breast cancer cells; assay: Wound healing assay, HGF-induced migration; assay type: cell-based; conditions: wound closure at 24 h
Method: (§2) FIG. 6. (A) Effect of HVS on HGF-induced migration of the highly metastatic MDA-MB-231 human breast cancer cells in wound healing assay. […] Vertical bars indicate the percentage of wound closure at 24 h after wounding, calculated relative to the wound distance at zero time±SEM of N=6 in each treatment group. SU11274 and (−)-oleocanthal were used as positive controls at 10 μM. Right panel represents photomicrographs of wound healing assay showing HVS treatment at three different concentrations (1.25, 2.5, and 5 μM) blocked the migration of MDA-MB-231 cells in response to HGF stimulation, as compared to DMSO as a vehicle control. (B) Effect of HVS on HGF-induced cell invasion of the highly aggressive MDA-MB-231 human breast cancer cells using Cultrex® BME cell invasion assay. The cells were treated with different concentrations of HVS for 24 h. Vertical bars indicate the percentage of cells invading the basement membrane at the end of treatment period±SEM of N=3 in each treatment group. (−)-Oleocanthal was used as a positive control at 20 μM dose.*P<0.05 as compared with vehicle-treated control. (C) Effect of HVS on HGF-induced scattering of the DU145 human prostate cancer cells in 2D monolayer cultures, compared to DMSO as vehicle control. Cells were treated with indicated concentrations of HVS for 30 minutes in serum-free media. […]

[3] = system: non-tumorigenic human MCF10A mammary epithelial cells; assay: Viability of non-tumorigenic mammary epithelial cells; assay type: cell-based; conditions: similar treatment doses; 24 h
[4] = system: MDA-MB-231/GFP human breast cancer cells; assay: Orthotopic breast cancer xenograft in athymic nude mice; assay type: in vivo; conditions: 10 mg/kg ip, 3×/week; end of study
Method: Treatment regimens were administered 3×/week, starting 5 days postinoculation. (A) Left panel; tumor volume was evaluated periodically during treatment at the indicated days postinoculation. Tumor volume (V) was calculated by V=(L×W^2)/2, where L was the length and W was the width of tumors. Points, the mean of tumor volume in mm^3 of several tumors (n=5) during the course of the treatment period; bars±SEM. *P<0.05 as compared to vehicle-treated control. Right panel; shown are two mice harboring human breast cancer. […] Error bars indicate SEM for n=5. (C) Left panel; vertical bars indicate mean tumor weight at the end of the experiment.*P<0.05 as compared to the vehicle-treated control. Error bars indicate SEM for n=5.
Breast tumor growth was compared between animals dosed ip with 10 mg/kg of HVS (n=5), 3×/week, starting on the 5th day post-inoculation and continuing for 4 weeks, vs. non-treated animals in a control group (DMSO). Tumor progression was followed by direct measurement of tumor volume starting 14 days after orthotopic cell inoculation.

[5] = system: DU145 human prostate cancer cells; assay: Cell scattering in 2D monolayer cultures; assay type: cell-based; conditions: 16 h, listed as HVS
Method: as §2

Sequence of IGF1R (P08069 31-1367): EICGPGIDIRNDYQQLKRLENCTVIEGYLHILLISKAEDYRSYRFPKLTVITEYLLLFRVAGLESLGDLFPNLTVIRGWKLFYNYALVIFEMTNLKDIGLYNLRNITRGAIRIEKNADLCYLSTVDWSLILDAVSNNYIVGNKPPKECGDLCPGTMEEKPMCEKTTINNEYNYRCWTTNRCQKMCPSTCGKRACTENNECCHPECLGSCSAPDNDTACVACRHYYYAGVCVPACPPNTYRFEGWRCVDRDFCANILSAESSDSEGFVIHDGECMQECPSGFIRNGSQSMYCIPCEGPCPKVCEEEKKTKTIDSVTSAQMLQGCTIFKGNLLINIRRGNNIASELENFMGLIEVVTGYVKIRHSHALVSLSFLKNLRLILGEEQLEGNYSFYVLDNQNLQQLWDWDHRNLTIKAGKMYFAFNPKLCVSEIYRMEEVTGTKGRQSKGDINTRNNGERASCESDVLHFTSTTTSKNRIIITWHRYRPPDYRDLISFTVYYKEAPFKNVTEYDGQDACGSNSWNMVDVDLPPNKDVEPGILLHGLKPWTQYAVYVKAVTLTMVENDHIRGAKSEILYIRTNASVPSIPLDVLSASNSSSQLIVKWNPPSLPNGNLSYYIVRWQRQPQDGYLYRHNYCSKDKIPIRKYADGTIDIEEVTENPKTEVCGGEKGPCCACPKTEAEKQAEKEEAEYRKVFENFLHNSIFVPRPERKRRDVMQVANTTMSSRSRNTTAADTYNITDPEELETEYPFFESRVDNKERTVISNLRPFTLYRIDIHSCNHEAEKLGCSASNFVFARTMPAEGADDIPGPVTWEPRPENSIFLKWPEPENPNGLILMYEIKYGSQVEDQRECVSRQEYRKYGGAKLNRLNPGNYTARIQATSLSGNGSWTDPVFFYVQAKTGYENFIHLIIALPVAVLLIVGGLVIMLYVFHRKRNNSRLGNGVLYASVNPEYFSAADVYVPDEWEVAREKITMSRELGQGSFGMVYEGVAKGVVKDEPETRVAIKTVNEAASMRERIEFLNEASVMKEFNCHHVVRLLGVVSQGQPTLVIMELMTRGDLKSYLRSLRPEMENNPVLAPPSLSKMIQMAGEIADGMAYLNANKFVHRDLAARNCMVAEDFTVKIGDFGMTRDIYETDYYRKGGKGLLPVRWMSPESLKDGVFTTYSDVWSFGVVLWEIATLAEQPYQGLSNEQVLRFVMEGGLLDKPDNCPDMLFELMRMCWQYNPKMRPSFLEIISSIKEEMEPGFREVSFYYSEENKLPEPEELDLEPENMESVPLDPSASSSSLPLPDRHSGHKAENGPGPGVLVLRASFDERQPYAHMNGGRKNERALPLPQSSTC
Sequence of ALK (Q9UM73 19-1620): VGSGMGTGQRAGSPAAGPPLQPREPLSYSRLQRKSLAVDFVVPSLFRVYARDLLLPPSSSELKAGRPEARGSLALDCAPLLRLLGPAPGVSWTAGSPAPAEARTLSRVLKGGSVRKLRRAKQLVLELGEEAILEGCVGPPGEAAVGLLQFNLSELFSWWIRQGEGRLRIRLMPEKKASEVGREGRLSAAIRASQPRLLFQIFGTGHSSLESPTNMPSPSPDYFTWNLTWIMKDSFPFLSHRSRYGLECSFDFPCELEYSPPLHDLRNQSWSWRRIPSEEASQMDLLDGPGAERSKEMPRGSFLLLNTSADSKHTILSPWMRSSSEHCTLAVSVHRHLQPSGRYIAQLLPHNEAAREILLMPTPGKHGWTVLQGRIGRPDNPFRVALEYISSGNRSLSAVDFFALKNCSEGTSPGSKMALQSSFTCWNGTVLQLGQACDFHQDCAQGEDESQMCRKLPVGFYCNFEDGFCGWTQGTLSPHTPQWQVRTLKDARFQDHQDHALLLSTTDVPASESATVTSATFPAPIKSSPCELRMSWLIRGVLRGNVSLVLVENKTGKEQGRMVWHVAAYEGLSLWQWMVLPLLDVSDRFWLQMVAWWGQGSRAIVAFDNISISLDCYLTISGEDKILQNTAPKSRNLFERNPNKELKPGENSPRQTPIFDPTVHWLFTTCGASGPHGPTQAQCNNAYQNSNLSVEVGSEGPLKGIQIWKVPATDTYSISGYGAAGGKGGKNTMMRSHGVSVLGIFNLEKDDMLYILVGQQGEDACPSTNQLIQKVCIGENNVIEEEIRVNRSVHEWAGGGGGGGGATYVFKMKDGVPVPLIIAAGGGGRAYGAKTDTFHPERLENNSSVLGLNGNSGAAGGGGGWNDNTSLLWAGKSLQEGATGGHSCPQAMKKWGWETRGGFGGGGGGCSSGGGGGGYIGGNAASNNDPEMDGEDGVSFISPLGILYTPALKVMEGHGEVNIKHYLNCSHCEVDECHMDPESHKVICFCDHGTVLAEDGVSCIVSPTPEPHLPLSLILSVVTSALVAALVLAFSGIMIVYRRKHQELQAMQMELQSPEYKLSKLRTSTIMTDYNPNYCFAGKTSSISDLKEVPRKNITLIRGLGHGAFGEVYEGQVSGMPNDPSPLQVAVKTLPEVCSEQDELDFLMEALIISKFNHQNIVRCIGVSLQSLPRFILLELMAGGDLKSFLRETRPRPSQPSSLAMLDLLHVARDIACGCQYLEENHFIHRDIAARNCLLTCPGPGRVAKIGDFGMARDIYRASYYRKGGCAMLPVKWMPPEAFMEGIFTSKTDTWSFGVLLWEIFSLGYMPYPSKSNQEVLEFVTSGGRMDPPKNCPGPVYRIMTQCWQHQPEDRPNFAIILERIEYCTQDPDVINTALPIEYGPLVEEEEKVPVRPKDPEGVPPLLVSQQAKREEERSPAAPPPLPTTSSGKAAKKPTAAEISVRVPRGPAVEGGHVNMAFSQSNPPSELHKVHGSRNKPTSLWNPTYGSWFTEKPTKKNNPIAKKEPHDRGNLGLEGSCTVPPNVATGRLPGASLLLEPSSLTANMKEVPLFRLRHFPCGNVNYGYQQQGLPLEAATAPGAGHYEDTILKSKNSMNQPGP
Sequence of KDR (VEGFR2) (P35968 20-1356): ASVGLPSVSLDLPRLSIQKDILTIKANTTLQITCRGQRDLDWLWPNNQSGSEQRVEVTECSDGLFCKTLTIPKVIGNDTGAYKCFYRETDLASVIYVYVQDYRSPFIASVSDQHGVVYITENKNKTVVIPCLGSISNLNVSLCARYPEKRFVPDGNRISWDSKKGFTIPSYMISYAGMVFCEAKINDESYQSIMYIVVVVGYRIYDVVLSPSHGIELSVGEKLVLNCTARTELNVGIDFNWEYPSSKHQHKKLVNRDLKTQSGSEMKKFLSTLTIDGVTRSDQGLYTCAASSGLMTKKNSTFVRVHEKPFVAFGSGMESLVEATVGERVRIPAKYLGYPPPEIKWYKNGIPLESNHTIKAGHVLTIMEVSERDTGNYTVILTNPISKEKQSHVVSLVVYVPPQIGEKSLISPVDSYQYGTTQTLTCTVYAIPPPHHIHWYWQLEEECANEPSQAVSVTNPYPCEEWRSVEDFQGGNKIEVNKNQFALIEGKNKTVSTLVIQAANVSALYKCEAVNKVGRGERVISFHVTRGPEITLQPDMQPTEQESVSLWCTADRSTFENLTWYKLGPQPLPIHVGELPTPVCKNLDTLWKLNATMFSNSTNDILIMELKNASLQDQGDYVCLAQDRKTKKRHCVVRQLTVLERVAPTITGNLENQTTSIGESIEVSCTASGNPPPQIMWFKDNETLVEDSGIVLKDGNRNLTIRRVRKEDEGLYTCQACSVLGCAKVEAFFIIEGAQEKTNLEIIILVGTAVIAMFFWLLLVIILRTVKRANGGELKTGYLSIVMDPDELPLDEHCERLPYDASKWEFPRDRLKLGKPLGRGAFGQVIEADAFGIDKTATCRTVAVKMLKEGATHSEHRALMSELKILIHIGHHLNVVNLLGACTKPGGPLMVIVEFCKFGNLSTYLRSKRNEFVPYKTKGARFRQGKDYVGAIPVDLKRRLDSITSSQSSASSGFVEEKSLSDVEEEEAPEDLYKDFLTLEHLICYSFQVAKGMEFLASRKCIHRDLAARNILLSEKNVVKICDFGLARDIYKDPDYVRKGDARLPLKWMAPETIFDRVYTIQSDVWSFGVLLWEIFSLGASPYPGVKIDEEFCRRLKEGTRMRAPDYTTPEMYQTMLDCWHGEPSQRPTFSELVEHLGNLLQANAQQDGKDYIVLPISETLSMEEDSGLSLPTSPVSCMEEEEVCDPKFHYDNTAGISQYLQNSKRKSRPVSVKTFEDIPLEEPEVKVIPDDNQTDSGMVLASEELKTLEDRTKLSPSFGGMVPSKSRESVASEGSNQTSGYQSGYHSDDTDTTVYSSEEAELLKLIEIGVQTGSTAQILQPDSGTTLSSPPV
Sequence of FGFR1 (P11362 22-822): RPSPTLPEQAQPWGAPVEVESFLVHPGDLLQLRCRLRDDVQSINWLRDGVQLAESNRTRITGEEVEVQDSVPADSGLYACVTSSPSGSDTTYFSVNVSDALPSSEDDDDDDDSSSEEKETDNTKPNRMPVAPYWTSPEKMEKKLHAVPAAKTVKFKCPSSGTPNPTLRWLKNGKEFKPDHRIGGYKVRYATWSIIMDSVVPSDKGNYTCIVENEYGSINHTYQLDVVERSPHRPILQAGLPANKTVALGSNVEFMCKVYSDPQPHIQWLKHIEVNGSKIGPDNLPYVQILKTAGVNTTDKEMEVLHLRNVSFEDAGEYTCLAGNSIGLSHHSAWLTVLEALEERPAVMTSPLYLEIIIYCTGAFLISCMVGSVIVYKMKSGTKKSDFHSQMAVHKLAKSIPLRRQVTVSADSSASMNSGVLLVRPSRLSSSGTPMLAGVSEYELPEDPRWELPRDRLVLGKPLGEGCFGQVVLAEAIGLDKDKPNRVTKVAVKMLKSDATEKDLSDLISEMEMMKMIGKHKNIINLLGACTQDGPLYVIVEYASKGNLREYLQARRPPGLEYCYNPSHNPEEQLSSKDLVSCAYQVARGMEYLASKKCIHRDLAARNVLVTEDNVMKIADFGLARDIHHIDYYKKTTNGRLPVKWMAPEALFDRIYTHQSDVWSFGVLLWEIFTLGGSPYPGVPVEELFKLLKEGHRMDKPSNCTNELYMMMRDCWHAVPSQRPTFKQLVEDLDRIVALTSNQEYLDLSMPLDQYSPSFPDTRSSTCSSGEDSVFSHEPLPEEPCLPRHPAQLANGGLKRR

In the case of `COc1cc(CCOC(=O)/C=C/c2cc(OC)c(O)c(OC)c2)ccc1O` [Compound 8, (E)-4-hydroxy-3-methoxyph-ethyl 3-(4-hydroxy-3,5-dimethoxyphenyl) acrylate], the LDH release [1] is reported as “minimal LDH release”, the inhibition at 10 µM (FLT1 (VEGFR1)) is reported as 9% and the inhibition at 10 µM (HER2 (ERbB2)) is reported as 4%. For the same molecule, the “Mean inhibition at 10 μM of HVS (%)” value (IGF1R) was “no observed inhibition”, the inhibition at 10 µM (IGF1R; read-out: Mean inhibition at 10 μM of HVS (%)) was -5% and the inhibition at 10 µM (KDR (VEGFR2)) was 20%. The inhibition at 10 µM (PDGFRβ) was 14%, the inhibition at 10 µM (FGFR1) was 50% and the inhibition at 10 µM (HER4 (ERbB4)) was 7%. The inhibition at 10 µM (KIT) was -3%, the inhibition at 10 µM (EGFR (ERbB1)) was 7% and the inhibition at 10 µM (ROS1) was 24%. The inhibition at 10 µM (ALK) was 21%, the HGF-induced migration [2] was “appears to inhibit” and the “effect on non-tumorigenic human MCF10A cells” value [3] was “no discernable effects”. The “reduction in tumor growth vs vehicle-treated control” value [4] was 92%, the HGF-induced cell scattering ([5]; 33 ng/mL HGF) was “significantly reduced; also recorded: appeared to block” and the EGF-induced cell scattering ([5]; 100 ng/mL EGF, similar treatment doses) was “do not block; also recorded: not inhibited”.
